Laboratory results as given in patent US4366143A, “Assay for the free portion of substances in biological fluids” (Amersham International Public Limited Company, priority 1979, dated 1982).

Tests used:
TBPA [1] = details: blood stream of human beings; cited from earlier work
[2] = system: thyroxine binding globulin (TBG), thyroxine binding pre-albumin (TBPA) and albumin (Alb); details: blood serum or plasma; cited from earlier work
TBG [3] = target: T1, TBG (Homo sapiens, UniProt P05543); assay: Binding of T4 derivatives to TBG, from antibody binding in presence and absence of blocking agent (Example 7)
T1 sequence (P05543 21-415): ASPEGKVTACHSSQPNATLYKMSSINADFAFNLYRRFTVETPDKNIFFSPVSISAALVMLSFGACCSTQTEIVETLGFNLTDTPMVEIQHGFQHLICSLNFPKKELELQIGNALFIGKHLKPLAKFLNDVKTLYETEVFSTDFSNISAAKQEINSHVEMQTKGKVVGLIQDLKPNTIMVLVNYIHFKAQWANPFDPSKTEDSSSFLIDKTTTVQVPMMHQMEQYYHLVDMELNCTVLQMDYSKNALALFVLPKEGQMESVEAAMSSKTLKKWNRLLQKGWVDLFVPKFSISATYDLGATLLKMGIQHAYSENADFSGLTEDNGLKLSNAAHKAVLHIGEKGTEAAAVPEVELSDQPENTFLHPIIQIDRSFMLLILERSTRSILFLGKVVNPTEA
Description: (§1) The dominant binding protein for T4 in serum is TBG, and the binding site for T4 on this protein may be blocked by adding an appropriate concentration of thiomersalate to the buffer.
(§2) The labelled T4 derivative was dissolved in 0.01 molar phosphate, pH 7.4 containing 0.9% sodium chloride and 0.1% gelatin to give a radioactive concentration of approximately 0.05 microcuries per milliliter. In the part of the experiment where the blocking agent was used, this buffer contained 1.8% thiomersal.
(§3) A solid phase T4 specific antibody was used that consisted of a pre-precipitated double antibody complex made by reacting sheep anti-T4 serum and donkey anti-rabbit gamma globulin serum in the abovementioned phosphate buffer. A concentration of this solid phase T4 antibody suspension was chosen that bound approximately 50% of ^125 I-T4 tracer in the presence of blocking agent under the experimental conditions used.
(§4) The binding of the labelled T4 derivatives was tested as follows:
(§5) 50 μl human serum (depleted of T4 by resin extraction)
(§6) 500 μl labelled T4 derivative (with or without blocking agent)
(§7) 1.0 ml solid phase T4 antibody suspension
(§8) Tubes were incubated for 2 hours at 37° C. and then centrifuged to settle the solid phase antibody. The supernatant solution was decanted and the radioactivity in the solid phase measured.
The right-hand column of the above table sets out the ratio of the figures in the two other columns. As a rule of thumb, it may be said that this ratio should be at least 0.6, preferably at least 0.9 for the compound tested to be worth considering for use in the free T4 assay. It should be noted, however, that these figures are valid only for the free T4 assay and not necessarily for other free ligand assays.

[4] = system: solid phase T4 specific antibody; assay: Binding of labelled T4 derivatives to solid phase T4 antibody with and without thiomersal (Example 7); set-up: species or system sheep; details: 125I-labelled T4 derivative
Description: as §1, §2, §3, §4, §5, §6, §7, §8

TBG [5] = target: T1, TBG; details: blood stream of human beings; cited from earlier work
Albumin = details: blood stream of human beings; cited from earlier work
[6] = system: T4-binding reagent (pre-precipitated double antibody complex, sheep anti-T4 serum); assay: Free T4 assay using N-acetyl-thyroxine-dimethylamide, tracer bound to T4-binding reagent (Example 6)
From the text: The labelled derivative of the ligand was N-acetyl-thyroxine-dimethylamide,labelled by iodine-125 exchange using sodium iodide I^125 and chloromine-T. The specific activity was 1000 millicuries per milligram. The tracer concentration was 0.5 μCi/ml.
The specific binder was a pre-precipitated double antibody complex made from sheep anti-T4 serum and donkey anti-rabbit γ globulin serum. This reagent is referred to as the T4-binding reagent.
The buffer was 0.01 molar phosphate, pH 7.4, containing 9.0 g/l NaCl, 1.0 g/l NaN3 and 1.0 g/l gelatin. 50 micro-liters of a serum sample or standard was mixed with 500 micro-liters of the tracer solution and 1000 micro-liters of the T4-binding reagent. The mixture was incubated for 2 hours at 37° C., centrifuged, decanted, and drained. The radioactivity of the precipitate was measured.

[7] = system: plasma proteins such as sex hormone binding globulin and albumin; details: cited from earlier work
[8] = system: sex hormone binding globulin (SHBG); details: cited from earlier work
transcortin and albumin = details: cited from earlier work
transcortin = target: T2, transcortin (Homo sapiens, UniProt P08185); assay: Binding of cortisol tracers to serum proteins / transcortin with and without ANS (Example 4); details: for % Tracer Bound to Serum Proteins (Corrected for Non-Specific Binding): charcoal extracted human serum
T2 construct: charcoal extracted human serum; from tissue; host or cells: human serum, charcoal extracted (unpurified)
T2 sequence (P08185 23-405): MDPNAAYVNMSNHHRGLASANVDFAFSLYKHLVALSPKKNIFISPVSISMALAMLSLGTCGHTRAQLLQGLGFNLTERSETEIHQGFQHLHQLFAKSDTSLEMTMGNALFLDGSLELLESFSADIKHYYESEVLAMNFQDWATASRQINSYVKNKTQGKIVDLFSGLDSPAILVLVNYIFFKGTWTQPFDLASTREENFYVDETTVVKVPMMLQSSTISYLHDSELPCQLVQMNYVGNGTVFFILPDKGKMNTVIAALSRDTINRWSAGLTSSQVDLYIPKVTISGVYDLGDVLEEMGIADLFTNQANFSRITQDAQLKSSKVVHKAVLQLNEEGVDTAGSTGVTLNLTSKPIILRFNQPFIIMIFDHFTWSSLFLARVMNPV
Description: The protocol was as follows:
B. 200 μl buffer (containing either 0 or 600 μg of 8-anilinonaphthalene sulphonic acid (ANS) as a cortisol binding site blocking agent).
A mixture of A and B was incubated at 37° C. for one hour. […] The reaction tubes were mixed for one hour at room temperature. A 0.5 ml aliquot of the supernatant was then removed for counting.

sheep-anti-T4 serum = assay: Free T4 assay, tracer N-acetyl-thyroxine-methyl ester bound to sheep anti-T4 serum (standard curve, Example 1); assay type: binding
From the text: The labelled derivative of the ligand was N-acetyl-thyroxine-methyl ester, labelled by iodine-125 exchange using sodium iodide-I^125 and chloramine-T. The specific activity was 1500 millicuries per milligram. The tractor concentration was 90 picomolar.
The specific binder was a solution of sheep-anti-T4 serum raised against thyroxine methyl ester coupled to bovine serum albumin by carbodiimide. The final dilution was 1/60,000 in buffer.
The buffer contained 13.6 g/l KH2 PO4, 9.0 g/l NaCl, 0.07 g/l NaN3 and 1.0 g/l gelatin.
50 micro-liters of a serum sample was mixed with 200 micro-liters of the radioactive ligand derivative solution and 200 micro-liters of specific binder solution and the mixture incubated at room temperature for one hour. Then 1 milli-liter of polyethyleneglycol solution (20%) was added, and the reaction mixture centrifuged. The supernatant liquid was decanted and the radioactivity of the precipitate was measured.

antibodies = details: cited from earlier work
TBG [9] = details: cited from earlier work
TBPA [10] = details: cited from earlier work

## N[C@@H](Cc1cc(I)c(Oc2cc(I)c(O)c(I)c2)c(I)c1)C(=O)O [L-T4, thyroxine, reference compound]
TBPA [1]
  percentage of T4 bound to TBPA: 20-25%
[2]
  bound to naturally occurring binding proteins: approximately 99.98%
TBG [3]
  Ratio (% bound to antibody, thiomersal absent / present): 0.24
  binding to TBG (in words): bound appreciably by TBG
[4]; Thiomersal absent
  % of T4 derivative bound to antibody: 12%
[4]; Thiomersal present
  % of T4 derivative bound to antibody: 50%
TBG [5]
  percentage of T4 bound to TBG: approximately 70%
Albumin
  percentage of T4 bound to Albumin: 5-10%

## CC(=O)N[C@@H](Cc1cc(I)c(Oc2cc(I)c(O)c(I)c2)c(I)c1)C(=O)N(C)C [N-acetyl-thyroxine-dimethylamide]
[6]; Free T4 0 ng/dl, mean of duplicate tubes
  % Radioactivity in Solid Phase: 38%
[6]; Free T4 0.18 ng/dl, mean of duplicate tubes
  % Radioactivity in Solid Phase: 22%
[6]; Free T4 0.9 ng/dl, mean of duplicate tubes
  % Radioactivity in Solid Phase: 11%
[6]; Free T4 3.0 ng/dl, mean of duplicate tubes
  % Radioactivity in Solid Phase: 6.0%
[6]; Free T4 5.7 ng/dl, mean of duplicate tubes
  % Radioactivity in Solid Phase: 3.6%
[6]; non-pregnant euthyroid control
  % Radioactivity in Solid Phase: 7.1%
[6]; pregnant euthyroid control
  % Radioactivity in Solid Phase: 6.8%

## CC(=O)N[C@@H](Cc1cc(I)c(Oc2cc(I)c(O)c(I)c2)c(I)c1)C(=O)O [L-T4/F, N-Acetyl-L-T4]
TBG [3]
  Ratio (% bound to antibody, thiomersal absent / present): 0.42
  binding to TBG (in words): bound to TBG to about the same extent as D-T4
  suitability of TBG binding reduction for free-T4 assay (in words): not reduced enough for consideration as a T4 derivative for a free-T4 assay
[4]; Thiomersal absent
  % of T4 derivative bound to antibody: 22%
[4]; Thiomersal present
  % of T4 derivative bound to antibody: 52%

## CCNC(=O)[C@H](Cc1cc(I)c(Oc2cc(I)c(O)c(I)c2)c(I)c1)NC(C)=O [L-T4/L, N-Acetyl-L-T4-monoethylamide]
TBG [3]
  Ratio (% bound to antibody, thiomersal absent / present): 0.35
  binding to TBG (in words): bound to TBG to about the same extent as D-T4
  suitability of TBG binding reduction for free-T4 assay (in words): not reduced enough for consideration as a T4 derivative for a free-T4 assay
[4]; Thiomersal absent
  % of T4 derivative bound to antibody: 21%
[4]; Thiomersal present
  % of T4 derivative bound to antibody: 60%

## C[C@]12CC[C@H]3[C@@H](CCC4=CC(=O)CC[C@@]43C)[C@@H]1CC[C@@H]2O (stereo in doubt) [testosterone]
[7]
  proportion bound to plasma proteins: > 90%
[8]
  binding to SHBG (in words): bind strongly

## C[C@]12CCC(=O)C=C1CC[C@@H]1[C@@H]2[C@@H](O)C[C@@]2(C)[C@H]1CC[C@]2(O)C(=O)CO [cortisol]
Transcortin and albumin
  cortisol in free form in blood plasma: ~8%

## C[C@]12CCC(=O)C=C1CC[C@@H]1[C@@H]2[C@@H](O)C[C@@]2(C)[C@H]1CC[C@]2(O)C(=O)CO [Cortisol (H^3), Cortisol, reference compound]
transcortin
  binding to transcortin (in words): binds strongly to transcortin
transcortin; ANS 0 μg/tube
  % Tracer Bound to Serum Proteins (Corrected for Non-Specific Binding): 28%
transcortin; ANS 600 μg/tube
  % Tracer Bound to Serum Proteins (Corrected for Non-Specific Binding): 3.5%
transcortin; high concentrations of ANS
  displacement from transcortin by ANS blocking agent (in words): displaced at high concentrations of the ANS blocking agent

## CC(=O)[C@H]1CC[C@H]2[C@@H]3CCC4=CC(=O)CC[C@]4(C)[C@H]3CC[C@]12C [progesterone]
[7]
  proportion bound to plasma proteins: > 90%

## CC(=O)N[C@@H](Cc1cc(I)c(Oc2cc(I)c(O)c(I)c2)c(I)c1)C(=O)N(C)C [L-T4/M, N-Acetyl-L-T4-dimethylamide]
TBG [3]
  Ratio (% bound to antibody, thiomersal absent / present): 1.00
  binding to TBG (in words): appears to have minimal binding to TBG
  suitability of TBG binding reduction for free-T4 assay (in words): sufficiently reduced binding to TBG for use in the free-T4 assay
[4]; Thiomersal absent
  % of T4 derivative bound to antibody: 50%
[4]; Thiomersal present
  % of T4 derivative bound to antibody: 50%

## C[C@]12CC[C@@H]3c4ccc(O)cc4CC[C@H]3[C@@H]1CC[C@@H]2O [oestradiol]
[8]
  binding to SHBG (in words): bind strongly

## COC(=O)[C@@H](Cc1cc(I)c(Oc2cc(I)c(O)c(I)c2)c(I)c1)NC(C)=O [D-T4/A, N-Acetyl D-T4-methylester]
TBG [3]
  Ratio (% bound to antibody, thiomersal absent / present): 1.00
  binding to TBG (in words): appears to decrease this binding to TBG even further
  suitability of TBG binding reduction for free-T4 assay (in words): sufficiently reduced binding to TBG for use in the free-T4 assay
[4]; Thiomersal absent
  % of T4 derivative bound to antibody: 38%
[4]; Thiomersal present
  % of T4 derivative bound to antibody: 38%

## COC(=O)[C@H](Cc1cc(I)c(Oc2cc(I)c(O)c(I)c2)c(I)c1)NC(C)=O [N-acetyl-thyroxine-methyl ester]
sheep-anti-T4 serum; Free T4 0.0 ng/dl
  % Radioactivity in Solid Phase: 58%
sheep-anti-T4 serum; Free T4 0.2 ng/dl
  % Radioactivity in Solid Phase: 55%
sheep-anti-T4 serum; Free T4 1.0 ng/dl
  % Radioactivity in Solid Phase: 47%
sheep-anti-T4 serum; Free T4 3.0 ng/dl
  % Radioactivity in Solid Phase: 34%
sheep-anti-T4 serum; Free T4 5.8 ng/dl
  % Radioactivity in Solid Phase: 22%

## COC(=O)[C@H](Cc1cc(I)c(Oc2cc(I)c(O)c(I)c2)c(I)c1)NC(C)=O [L-T4/A, N-Acetyl-L-T4-methylester]
TBG [3]
  Ratio (% bound to antibody, thiomersal absent / present): 0.90
  binding to TBG (in words): appears to bind much less strongly to TBG than does L-T4
  suitability of TBG binding reduction for free-T4 assay (in words): sufficiently reduced binding to TBG for use in the free-T4 assay
[4]; Thiomersal absent
  % of T4 derivative bound to antibody: 36%
[4]; Thiomersal present
  % of T4 derivative bound to antibody: 40%

## N[C@H](Cc1cc(I)c(Oc2cc(I)c(O)c(I)c2)c(I)c1)C(=O)O [D-T4, D-Thyroxine]
antibodies
  binding to antibodies relative to L-Thyroxine / T4 (in words): binds as strongly to antibodies as does the naturally occurring L-Thyroxine
TBG [9]
  binding to TBG relative to L-Thyroxine / T4 (in words): substantially less than that of L-Thyroxine
TBG [3]
  Ratio (% bound to antibody, thiomersal absent / present): 0.48
  binding to TBG (in words): bound less by TBG
  suitability of TBG binding reduction for free-T4 assay (in words): not reduced enough for consideration as a T4 derivative for a free-T4 assay
[4]; Thiomersal absent
  % of T4 derivative bound to antibody: 24%
[4]; Thiomersal present
  % of T4 derivative bound to antibody: 50%
TBPA [10]
  binding to TBPA relative to L-Thyroxine / T4 (in words): substantially less than that of L-Thyroxine
